Key:
FLK-1 receptor = target: T1, FLK-1 receptor (Mus musculus, UniProt P35918); experiment: FLK-1 ELISA in FLK-1/NIH3T3 cells; format: cell-based
T1 construct: expressed in transfected cells; host or cells: NIH3T3 C7#3 cells

3T3/E/H+TGF-a(T) cells = experiment: 3T3/E/H+TGF-a(T) cell growth SRB assay; format: cell-based; conditions: SRB readout
HUV-EC-C cells (VEGF) = experiment: HUV-EC-C assay, [3H] thymidine incorporation, VEGF; format: cell-based, human; conditions: Mitogenesis in endothelial cells
HUV-EC-C cells (a-FGF) = experiment: HUV-EC-C assay, [3H] thymidine incorporation, a-FGF; format: cell-based, human; conditions: Mitogenesis in endothelial cells
Experimental: The following protocol may also be used to measure the composition's activity: • Day 0 • 1. […] After cells have detached from the flask, add an equal volume of assay medium and transfer to a 50 ml sterile centrifuge tube (Fisher Scientific; catalogue no. 05-539-6). • 2. Wash the cells with about 35 ml assay medium in the 50 ml sterile centrifuge tube by adding the assay medium, centrifuge for 10 minutes at approximately 200×g, aspirate the supernatant, and resuspend with 35 ml D-PBS. Repeat the wash two more times with D-PBS, resuspend the cells in about 1 ml assay medium/15 cm^2 of tissue culture flask. Assay medium consists of F12K medium (Gibco BRL; catalogue no. 21127-014)+0.5% heat-inactivated fetal bovine serum. Count the cells with a Coulter Counter.RTM.v Coulter Electronics, Inc.) and add assay medium to the cells to obtain a concentration of 0.8-1.0×10^5 cells/ml. • 3. Add cells to 96-well flat-bottom plates at 100 μl/well or 0.8-1.0×10^4 cells/well; incubate about 24 h at 37° C., 5% CO2. Day 1 • 1. Make up two-fold drug titrations in separate 96-well plates, generally 50 μM on down to 0 μM. Use the same assay medium as mentioned in day 0, step 2 above. Titrations are made by adding […] of drug at 200 μM (4× the final well concentration) to the top well of a particular plate column. Since the stock drug concentration is usually 20 mM in DMSO, the 200 μM drug concentration contains 2% DMSO. Therefore, diluent made up to 2% DMSO in assay medium (F12K+0.5% fetal bovine serum) is used as diluent for the drug titrations in order to dilute the drug but keep the DMSO concentration constant. Add this diluent to the remaining wells in the column at 60 μl/well. Take 60 μl from the 120 μl of 200 μM drug dilution in the top well of the column and mix with the 60 μl in the second well of the column. Take 60 μl from this well and mix with the 60 μl in the third well of the column, and so on until two-fold titrations are completed. When the next-to-the-last well is mixed, take 60 μl of the 120 μl in this well and discard it. Leave the last well with 60 μl of DMSO/media diluent as a non-drug-containing control. Make 9 columns of titrated drug, enough for triplicate wells each for 1) VEGF (obtained from Pepro Tech Inc., catalogue no. 100-200, 2) endothelial cell growth factor (ECGF) (also known as acidic fibroblast growth factor, or aFGF) (obtained from Boehringer Mannheim Biochemica, catalogue no. 1439 600), and assay media control. ECGF comes as a preparation with sodium heparin. • 2. Transfer 50 μl/well of the drug dilutions to the 96-well assay plates containing the 0.8-1.0×10^4 cells/100 μl/well of the HUV-EC-C cells from day 0 and […] incubate ~2 h at 37° C., 5% CO2. • 3. In triplicate, add 50 μl/well of 80 ng/ml VEGF, 20 ng/ml ECGF, or media control to each drug condition. As with the drugs, the growth factor concentrations are 4× the desired final concentration. Use the assay media from day 0 step 2 to make the concentrations of growth factors. Incubate approximately 24 hours at 37° C., 5% CO2. Each well will have 50 μl drug dilution, 50 μl growth factor or media, and 100 ul cells,=200 ul/well total. Thus the 4× concentrations of drugs and growth factors become 1× once everything has been added to the wells. Day 2 • 1. Add ^3H-thymidine (Amersham; catalogue no. TRK-686) at 1 μCi/well (10 μl/well of 100 μCi/ml solution made up in RPMI media+10% heat-inactivated fetal bovine serum) and incubate about 24 h at 37° C., 5% CO2. • Note: ^3H-thymidine is made up in RPMI media because all of the other applications for which we use the ^3H-thymidine involve experiments done in RPMI. The media difference at this step is probably not significant. RPMI was obtained from Gibco BRL, catalogue no. 11875-051. Day 3 • 1. Freeze plates overnight at −20° C. Day 4 • 1. […]

PDGFR [1] = target: PDGFR (Homo sapiens, UniProt P09619); experiment: PDGF-R ELISA
Chain of PDGFR (Homo sapiens, UniProt P09619) (P09619 33-1106): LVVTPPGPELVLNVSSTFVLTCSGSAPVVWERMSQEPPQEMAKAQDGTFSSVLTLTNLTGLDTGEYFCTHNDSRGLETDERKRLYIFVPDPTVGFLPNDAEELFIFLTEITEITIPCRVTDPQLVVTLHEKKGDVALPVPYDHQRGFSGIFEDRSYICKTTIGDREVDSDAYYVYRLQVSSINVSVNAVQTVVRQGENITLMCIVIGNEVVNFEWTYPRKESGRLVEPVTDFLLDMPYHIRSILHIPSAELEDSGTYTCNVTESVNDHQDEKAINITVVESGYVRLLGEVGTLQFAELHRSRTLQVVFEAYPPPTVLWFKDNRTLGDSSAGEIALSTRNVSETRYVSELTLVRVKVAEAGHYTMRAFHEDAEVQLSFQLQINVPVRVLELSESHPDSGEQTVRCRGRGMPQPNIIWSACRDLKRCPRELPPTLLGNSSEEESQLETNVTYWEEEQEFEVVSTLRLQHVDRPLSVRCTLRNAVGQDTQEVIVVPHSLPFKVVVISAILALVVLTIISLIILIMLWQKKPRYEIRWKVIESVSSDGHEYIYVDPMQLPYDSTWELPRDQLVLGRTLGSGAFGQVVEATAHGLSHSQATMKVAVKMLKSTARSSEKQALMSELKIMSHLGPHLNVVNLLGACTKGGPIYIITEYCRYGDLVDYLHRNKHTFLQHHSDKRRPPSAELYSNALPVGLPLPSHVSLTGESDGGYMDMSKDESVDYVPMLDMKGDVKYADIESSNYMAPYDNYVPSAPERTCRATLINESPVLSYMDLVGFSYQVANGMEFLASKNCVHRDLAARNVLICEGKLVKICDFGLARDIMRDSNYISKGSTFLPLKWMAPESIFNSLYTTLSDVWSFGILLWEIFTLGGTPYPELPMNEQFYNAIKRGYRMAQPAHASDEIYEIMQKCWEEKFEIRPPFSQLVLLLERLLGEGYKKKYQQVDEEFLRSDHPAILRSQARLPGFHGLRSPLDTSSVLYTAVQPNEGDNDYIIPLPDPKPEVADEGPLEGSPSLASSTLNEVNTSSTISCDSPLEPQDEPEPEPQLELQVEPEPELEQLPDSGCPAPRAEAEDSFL

3T3/PDGFR+PDGF(T) cells = experiment: 3T3/PDGF-βR/PDGF-BB(T) cell growth SRB assay; format: cell-based; conditions: tumor-derived, SRB readout
Experimental: Cell Line and Growth Medium:
• 3T3/PDGF-βR/PDGF-BB(T) (NIH 3T3 clone 7 cells expressing PDGFβ-receptor and PDGF-BB, from tumors resected from athymic mice) 2% calf serum/DMEM+2 mM glutamine Protocol: Day 0: Cell Plating: • This part of assay is carried out in a laminar flow hood. • 1. Trypsinize cells as usual. Transfer 200 μl of cell suspension to 10 ml of isotone. Count cells on the Coulter Counter. • 2. Dilute cells in growth medium to 60,000 cells/ml. Transfer 100 μl of cells to each well in a 96-well flat bottom plate to give 6000 cells/well. • 3. Allow half of plate (4 rows) for each compound and quadruplicate wells for each compound concentration, a set of 4 wells for medium control and 4 wells for DMSO control. • 4. Gently shake plates to allow for uniform attachment of the cells to the plate. • 5. Incubate the plates at 37° C. in a 10% CO2 incubator. • Day 1: Addition of Compound: same as for Assay 1. • Day 5: Development of Assay: same as for Assay 1.
3T3/E/H+TGF-α(T): NIH 3T3 cells expressing EGFR/HER2 chimera and TGF-α, tumor-derived 3T3/EGFR+TGF-α(T): NIH 3T3 cells expressing EGFR and TGF-α, tumor-derived 3T3/PDGFR+PDGF(T): NIH 3T3 cells expressing PDGF-βR and PDGF-ββ, tumor-derived SMC: human smooth muscle cells from Clonetics

FGFR = FGFR (Mus musculus, UniProt P16092); experiment: FGF ligand BrdU incorporation in 3T3/EGFR cells; format: cell-based; conditions: Mitogenesis in 3T3/EGFR cells
Chain of FGFR (P16092 22-822, change not shown): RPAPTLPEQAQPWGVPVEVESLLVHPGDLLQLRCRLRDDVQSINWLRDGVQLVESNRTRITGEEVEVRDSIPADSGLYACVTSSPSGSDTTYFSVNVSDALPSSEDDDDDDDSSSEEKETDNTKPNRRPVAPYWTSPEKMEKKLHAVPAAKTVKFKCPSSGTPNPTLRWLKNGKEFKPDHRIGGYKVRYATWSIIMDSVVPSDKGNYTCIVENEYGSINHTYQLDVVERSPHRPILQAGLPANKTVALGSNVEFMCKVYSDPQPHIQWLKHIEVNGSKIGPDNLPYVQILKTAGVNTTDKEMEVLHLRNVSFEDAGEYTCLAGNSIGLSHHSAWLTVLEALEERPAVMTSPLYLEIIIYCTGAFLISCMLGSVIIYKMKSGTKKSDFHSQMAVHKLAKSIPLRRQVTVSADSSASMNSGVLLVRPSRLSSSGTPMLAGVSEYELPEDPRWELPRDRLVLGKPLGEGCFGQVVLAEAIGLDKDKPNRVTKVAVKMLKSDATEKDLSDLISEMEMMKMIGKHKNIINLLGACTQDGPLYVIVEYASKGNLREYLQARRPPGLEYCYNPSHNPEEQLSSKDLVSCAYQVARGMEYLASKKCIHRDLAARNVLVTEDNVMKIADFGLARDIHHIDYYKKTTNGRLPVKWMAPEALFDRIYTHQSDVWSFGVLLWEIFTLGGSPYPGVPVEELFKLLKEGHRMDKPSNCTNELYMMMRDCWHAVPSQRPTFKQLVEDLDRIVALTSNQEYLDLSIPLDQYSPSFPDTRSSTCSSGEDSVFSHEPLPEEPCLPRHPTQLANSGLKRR

PDGFR [2] = experiment: PDGF-induced BrdU incorporation assay in 3T3/EGFR cells; format: cell-based; conditions: Mitogenesis in 3T3/EGFR cells, read-out: PDGFR PDGF Ligand IC50

T1 sequence (P35918 20-1345): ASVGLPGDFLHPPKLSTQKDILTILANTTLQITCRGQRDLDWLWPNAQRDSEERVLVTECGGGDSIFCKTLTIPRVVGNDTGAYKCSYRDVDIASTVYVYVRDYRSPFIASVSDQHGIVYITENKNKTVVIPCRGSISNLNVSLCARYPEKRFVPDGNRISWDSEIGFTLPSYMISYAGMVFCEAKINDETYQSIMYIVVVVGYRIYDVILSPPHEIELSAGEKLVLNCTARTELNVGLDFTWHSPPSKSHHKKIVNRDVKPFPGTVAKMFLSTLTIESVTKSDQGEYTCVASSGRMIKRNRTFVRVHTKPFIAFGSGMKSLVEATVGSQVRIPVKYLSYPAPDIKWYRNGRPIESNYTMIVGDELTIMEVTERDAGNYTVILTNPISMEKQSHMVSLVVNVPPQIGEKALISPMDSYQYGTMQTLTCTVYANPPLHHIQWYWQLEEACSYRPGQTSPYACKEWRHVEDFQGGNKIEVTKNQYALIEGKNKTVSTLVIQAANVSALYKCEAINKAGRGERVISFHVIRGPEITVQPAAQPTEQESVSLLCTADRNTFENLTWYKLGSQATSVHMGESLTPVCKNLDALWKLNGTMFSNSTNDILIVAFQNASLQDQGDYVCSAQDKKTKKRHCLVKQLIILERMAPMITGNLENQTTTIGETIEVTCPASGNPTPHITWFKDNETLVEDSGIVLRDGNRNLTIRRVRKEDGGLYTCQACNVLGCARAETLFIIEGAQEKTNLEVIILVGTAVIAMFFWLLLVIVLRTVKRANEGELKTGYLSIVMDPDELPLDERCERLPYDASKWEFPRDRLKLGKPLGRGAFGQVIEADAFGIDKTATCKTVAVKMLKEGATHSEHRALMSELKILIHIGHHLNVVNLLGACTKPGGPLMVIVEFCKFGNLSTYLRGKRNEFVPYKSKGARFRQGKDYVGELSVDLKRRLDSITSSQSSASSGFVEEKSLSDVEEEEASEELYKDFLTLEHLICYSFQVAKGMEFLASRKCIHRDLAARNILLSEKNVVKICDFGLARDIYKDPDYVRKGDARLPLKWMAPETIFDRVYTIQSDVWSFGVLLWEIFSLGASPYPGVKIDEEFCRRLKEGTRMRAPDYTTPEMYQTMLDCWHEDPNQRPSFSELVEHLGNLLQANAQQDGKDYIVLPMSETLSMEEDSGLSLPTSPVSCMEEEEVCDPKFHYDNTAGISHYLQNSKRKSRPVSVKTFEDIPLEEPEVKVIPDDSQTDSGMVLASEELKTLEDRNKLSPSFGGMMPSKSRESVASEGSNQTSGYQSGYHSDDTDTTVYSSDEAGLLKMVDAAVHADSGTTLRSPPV

Compound	IC50 (HUV-EC-C cells (VEGF)) [µM]	IC50 (HUV-EC-C cells (a-FGF)) [µM]	IC50 (PDGFR [1]) [µM]	other results
3-[(2-Sulphonylfuran-5-yl)methylene]-2-indolinone sodium salt [SU5428]				IC50 (FLK-1 receptor): 8.6 µM
CN(C)c1ccc(C=C2C(=O)Nc3ccccc32)cc1 [SU4312, 3-(4-Dimethylaminobenzylidenyl)-2-indolinone]				IC50 (3T3/E/H+TGF-a(T) cells): 36 µM
COc1ccc(OC)c(C=C2C(=O)Nc3ccccc32)c1 [SU4793, 3-(2,5-Dimethoxybenzylidenyl)-2-indolinone]	6.6	3.4		
COc1cccc(C=C2C(=O)Nc3ccccc32)c1OC [SU4794, 3-(2,3-dimethoxybenzylidenyl)-2-indolinone]	4.8	35.7		
O=CN1CCN(c2ccc(C=C3C(=O)Nc4ccccc43)cc2)CC1 [SU4984, 3-[4-(4-Formylpiperazin-1-yl)benzylidenyl]-2-indolinone]			5.8	IC50 (3T3/PDGFR+PDGF(T) cells): 22.2 µM
Cc1cc[nH]c1C=C1C(=O)Nc2ccccc21 [SU5404, 3-[(3-Methylpyrrol-2-yl)methylene]-2-indolinone]			17	IC50 (FGFR): 25 µM; IC50 (PDGFR [2]): 3 µM
O=C1Nc2ccccc2C1=Cc1ccc(N2CCCC2)cc1 [SU5466, 3-[4-(Pyrrolidin-1-yl)benzylidenyl]-2-indolinone]			86	IC50 (FGFR): 15 µM; IC50 (PDGFR [2]): 18 µM
O=C1Nc2ccccc2C1=Cc1c[nH]cn1 [SU5473, 3-[(Imidazol-4-yl)methylene]-2-indolinone]			14.2	IC50 (HUV-EC-C cells (VEGF); Homo sapiens, HUVEC): 1.2 µM; IC50 (FGFR): 50 µM; IC50 (HUV-EC-C cells (a-FGF); Homo sapiens, HUVEC): 14.1 µM; IC50 (PDGFR [2]): 4 µM

More lines, main results first:

IC50 (HUV-EC-C cells (VEGF)) [µM]	IC50 (HUV-EC-C cells (a-FGF)) [µM]	Compound	IC50 (PDGFR [1]) [µM]	other results
19.9		CC(=O)Nc1ccc(C=C2C(=O)Nc3ccccc32)cc1 [SU4799, 3-(4-acetamidobenzylidenyl)-2-indolinone]		
2.5	45.2	O=C1Nc2ccccc2C1=Cc1ccc(O)cc1Cl [SU4932, 3-(2-chloro-4-hydroxybenzylidenyl)-2-indolinone]		
25.6	19.3	CN(C)c1ccc(C=C2C(=O)N(C)c3ccccc32)cc1 [SU4952, 3-(4-Dimethylaminobenzylidenyl)-1-methyl-2-indolinone]		
8	13	CN1C(=O)C(=Cc2ccc(Br)cc2)c2ccccc21 [SU4956, 3-(4-Bromobenzylidenyl)-1-methyl-2-indolinone]		
46.1	27.3	CN1C(=O)C(=Cc2ccc(N3CCOCC3)cc2)c2ccccc21 [SU4982, 1-Methyl-3-[4-(morpholin-4-yl)benzylidenyl]-2-indolinone]		
